Measured values published in patent publication US9883675B2, “Method for controlling pests” (SUMITOMO CHEMICAL COMPANY, LIMITED, priority 2013, dated 2018).

System: Diamondback moth (Plutella xylostella)
Experiment: Test Example 1: Japanese radish seed treatment, mortality of Diamondback moth larvae
Format: in vivo
Conditions: 48 h, third instar larvae released four days after seeding, observed two days after release, average of two replications
Protocol: Each of the present fused heterocyclic compounds 3, 4, 5, 9, 15, 16, 17, 18, 19, 20, 22, 25, 72, 74, 85, 130, 399, 409, 414, 419, 443, 444, 445, 464 and 467 was dissolved in acetone (available from Wako Pure Chemical Industries, Ltd.) containing 5% (W/V) SOLGEN TW-20 (available from Daiichi-Kogyo Seiyaku Co. Ltd.) so as to give a prescribed concentration, and to prepare the testing solution.
Nine (9) grains of the Japanese raddish (Raphanus sativas var. longipinnatus) were placed in a 2 ml volume polypropylene microtube (manufactured by As One Co.) and thereto was added 18 μl of the above testing solution and the seeds in the microtube were shaken and stirred on Stirrer (Trade name: VORTEX-GENIE2, manufactured by Scientific Industries, Inc.). After the testing solution was spread uniformly to the whole seed, the seeds were allowed to air dry.
To a 90 ml volume of plastic cup filled with ten (10) g of culture soil (Trade name: Aisai No. 1; available from Katakura Chikkarin Co., Ltd.) was added water (5 ml) and thereto was seeded three (3) grains of the above seeds.
At four days after the seeding, Diamondback moth (Plutella xylostella) at the third instar larval stages were released in a ratio of 10 (ten) heads of insects per the cup, and then the cups were covered with nylon gauze and covered with a lid (hereinafter, referred to as “treated group”).
On the other hand, Japanese raddish was seeded by the similar procedures to the treated group except that the present fused heterocyclic compound was not dissolved in acetone (available from Wako Pure Chemical Industries, Ltd.) containing 5% (W/V) SOLGEN TW-20 (available from Daiichi-Kogyo Seiyaku Co. Ltd.), and the larvae were released, and the cups were covered with a lid (hereinafter, referred to as “Untreated group”).
At two days after the release, the surviving and death of the larvae were observed and on basis of the results of the observation, the mortalities of both groups were calculated by the following equation 1), respectively. Two replication tests were performed on each group. The average value is shown below. Mortality (%)=(Total number of […])/Total number of Tested insects×100 Equation 1)

CCS(=O)(=O)c1cccnc1-c1nc2cc(C(F)(F)C(F)(F)F)ccc2o1 [Present fused heterocyclic compound 467, 2-(3-Ethylsulfonylpyridin-2-yl)-5-pentafluoroethyl-benzoxazole]
mortality at 0.01 mg (dose 0.01 mg/1 grain of seed): 100% | mortality at 0.2 mg (dose 0.2 mg/1 grain of seed): 100%
